Legend:
[1] = system: HEK293 cells, normal (non-induced); assay: Permeability of chelates to HEK293 cells, fluorescence of fractions; type: cell-based, human; settings: for Fluorescence/mg Cytoplasm / Fluorescence/mg Membrane: HEK293 Normal, 1 mM chelate, 2 hours; for differential fluorescence, cytoplasm versus membrane fractions: normal HEK293 cells
Method: (§1) The human kidney transformed HEK293 cells (obtained from the ATCC) were grown in Eagle's Minimum Essential Medium (EMEM) supplemented with 10% (v/v) heat-inactivated fetal bovine serum, sodium pyruvate, nonessential amino acids and antibiotics in a humidified 5% CO2 atmosphere at 37° C. Medium and supplements were purchased from Gibco bRL (Grand Island, N.Y.). Etoposide was obtained from Sigma (St. Louis, Mo.) and prepared as 20 mM solution in dimethyl sulfoxide (DMSO). For treatments, etoposide was applied to the HEK293 cultures at 1:1000 dilution (final concentration of 20 μM) after cell became 75% confluent. As a control, cells were fed with medium containing 0.1% DMSO in the absence of etoposide. After treatment with etoposide, cells were incubated in a humidified 5% CO2 at 37° C. for 24 hours. HEK293 cells were collected by removing treatment medium and washed 2 times with 10 mM HEPES buffer. Final cell pellets were resuspended in a small amount of HEPES and stored at 4° C. for further study.
(§2) Cells were grown to confluence in T-150 flasks (about 2×10^6 cells). […] After treatment, the chelate or analogue supernatant was discarded and the cells were rinsed three times at room temperature with 10 mM HEPES. Cells were then removed from the flask by manual scraping. Cells were transferred to a 50-mL conical tube and centrifuged (400×g) for 5 minutes and the test material removed. Remaining cells were rinsed twice with cold 10 mM HEPES. Cells were used in cell binding assays.

[2] = system: Caco-2 cell line; assay: Chelate permeability: fluorescence of cytoplasm and membrane fractions; type: cell-based, human; settings: 1 mM chelate, 2 h
[3] = system: T84 cell line; assay: as above; type: cell-based, human; settings: 1 mM chelate, 2 h
[4] = system: etoposide-induced (apoptotic) HEK293 cells; assay: Permeability of chelates to apoptotic cells, fluorescence of fractions; type: cell-based, human; settings: for Fluorescence/mg Cytoplasm / Fluorescence/mg Membrane: HEK293 Apoptotic (etoposide 20 μM, 24 hours), 1 mM chelate, 2 hours; for differential fluorescence, cytoplasm versus membrane fractions: etoposide-induced HEK293 cells
Method: as §1, §2

[5] = system: cancer cells (LNCaP, Caco-2, T84); assay: Chelate permeability and specificity, cancer cells versus normal cells (summary); type: cell-based, human; settings: for permeability to cell membranes: cancer cells
[6] = system: LNCaP cell line; assay: Chelate permeability: fluorescence of cytoplasm and membrane fractions; type: cell-based, human; settings: 1 mM chelate, 2 h
[7] = system: RBL-2H3 cell line; assay: as above; type: cell-based, rat; settings: 1 mM chelate, 2 h, Table 4
Method: Tb-PCTMB (Tb(III) 3,6,9-tris(methylene phosphonic acid n-butyl ester)-3,6,9,15-tetraazabicyclo[9.3.1]pentadeca-1(15),11,13-triene) was tested for permeability to abnormal and disease-state cells.
RBL-2H3 is a rat basophilic leukemia cell line. These cells were grown in Iscove's Medium supplemented with 2 mM L-glutamnine, penicillin/streptomycin (100 IU/mL, 100 μg/mL) and 10% FBS. Cells were maintained at 5% CO2 and 95% humidity. PZ-HPV-7 cell line was derived from epithelial cells cultured from normal prostate tissue. They were grown in Keratinocyte-Serum Free Medium with human recombinant EGF and bovine pituitary extract supplemented with 50 μg/mL gentamicin and penicillin/streptomycin (100 IU/mL, 100 μg/mL). All media and supplements were purchased from Gibco BRL (Grand Island, N.Y., USA). All cell lines were obtained from ATCC and were maintained at 37° C., 5% CO2 and 95% humidity.
Cells were grown to confluence in T-150 flasks (about 2×10^6 cells). […] Cells were then removed from the flask by manual scraping. Cells were transferred to a 50-mL conical tube and centrifuged (400×g) for 5 minutes and the test material removed.
Cells were grown as described herein (Example 1). Cells were grown to confluence in T-150 flask (about 2×10^6 cells). […] Cells were then removed from the flask by manual scraping. Cells were transferred to a 50-mL conical tube and centrifuged (400×g) for 5 minutes and the test material removed.
Furthermore, one analogue, QCTMP (FIG. 26), having lesser lipophilic character (a free phosphonic acid moiety) was evaluated. […] In this study, the cytoplasm and membrane fractions were extracted by Mem-PER Eukaryotic Membrane Protein Extraction Reagent Kit as described by the manufacturers (Pierce Biotechnology, Rockford, Ill.) and analyzed by a Fluor-S Multilmager.

[8] = system: PZ-HPV-7 normal cell line; assay: as above; type: cell-based; settings: PZ-HVP-7; 1 mM chelate, 2 h; Table 4

| Structure (SMILES) | Fluorescence/mg Cytoplasm [1] | Fluorescence/mg Membrane [1] | differential fluorescence, cytoplasm versus membrane fractions [1] | Fluorescence/mg Cytoplasm ([2]; Table 1) | Fluorescence/mg Membrane ([2]; Table 1) | Fluorescence/mg Cytoplasm ([3]; Table 1) | Fluorescence/mg Membrane ([3]; Table 1) | Fluorescence/mg Cytoplasm [4] | Fluorescence/mg Membrane [4] | differential fluorescence, cytoplasm versus membrane fractions [4] | specificity or selectivity for cancer cells versus normal cells [5] | permeability to cell membranes [5] | Fluorescence/mg Cytoplasm ([6]; Table 1) | Fluorescence/mg Membrane ([6]; Table 1) | further results |
| --- | --- | --- | --- | --- | --- | --- | --- | --- | --- | --- | --- | --- | --- | --- | --- |
| O=C([O-])CN1CCN(CC(=O)[O-])Cc2cccc(n2)CN(CC(=O)[O-])CC1.[Tb+3] [Tb-PCTA] | 686 | 685 | did not show any significant differential fluorescence | 366.3 | 362.8 | 333.4 | 329.1 | 652 | 678 | did not show any significant differential fluorescence | did not show any specificity or selectivity | no permeability | 368.8 | 362.1 | – |
| COP(=O)([O-])CN1CCN(CP(=O)([O-])OC)Cc2cccc(n2)CN(CP(=O)([O-])OC)CC1.[Tb+3] [Tb-PCTMM] | 682 | 679 | did not show any significant differential fluorescence | 357.7 | 388.9 | 328.3 | 358.7 | 656 | 962 | did not show any significant differential fluorescence | did not show any specificity or selectivity | no permeability | 344.5 | 379.5 | – |
| Cc1ccc2nc(CN3CCN(CP(=O)([O-])O)CCN(CP(=O)([O-])O)CCN(CP(=O)([O-])O)CC3)ccc2c1.[Eu+3] [Eu-QCTMP] | 1732 | 1738 | did not show any significant differential fluorescence | – | – | – | – | 1450 | 1800 | did not show any significant differential fluorescence | did not show any specificity or selectivity | did not appear to be permeable | – | – | Fluorescence/mg Cytoplasm [7]: 2311; Fluorescence/mg Membrane [7]: 2311; Fluorescence/mg Cytoplasm ([2]; Table 4): 2300; Fluorescence/mg Membrane ([2]; Table 4): 2314; Fluorescence/mg Cytoplasm ([3]; Table 4): 2230; Fluorescence/mg Membrane ([3]; Table 4): 2259; Fluorescence/mg Cytoplasm [8]: 2276; Fluorescence/mg Membrane [8]: 2271; Fluorescence/mg Cytoplasm ([6]; Table 4): 2287; Fluorescence/mg Membrane ([6]; Table 4): 2301 |

From patent US20060210479A1 (Dow Global Technologies Inc., priority 2004, published 2006)
